Assay results reported in patent publication US20150140015A1, “METHODS AND PHARMACEUTICAL COMPOSITIONS FOR THE TREATMENT OF PANCREATIC CANCER” (INSERM (Institut National de la Sante et de la Recherche …, priority 2013, published 2015).

Legend:
parental HPAF-II cells = assay: Quantification of apoptotic cells by annexin V-PE labeling in parental HPAF-II cells; type: cell-based, human; conditions: parental HPAF-II cells; NSC-87877 50 μM
Experimental: (§1) FIGS. 5A and B. Effect of orexin-A on apoptosis in OX1R expressing recombinant OX1R/HPAF-II cells. A, Parental HPAF-II and recombinant OX1R/HPAF-II cells were challenged with (black bars) or without (white bars) 1 μM orexin-A for 48 hr in the absence or presence of the SHP-2 protein tyrosine phosphatase inhibitor, NSC-87877 (50 μM). Apoptosis was measured by determination of annexin V-PE binding. Results are expressed as the percentage of apoptotic cells, and are the means±SE of three separate experiments. ***p<0.001; ns, non-significant; B, paraformaldehyde-fixed HPAF-II cells and recombinant OX1R/HPAF-II cells were challenged with or without (Basal) 1 μM orexin-A for 48 hr. Indirect immunostaining of activated caspase-3 in parental HPAF-II cells (left panels) and recombinant OX1R/HPAF-II cells (right panels) in the presence (bottom panels) or tabsence (top panels) of orexin-A is illustrated in B.
(§2) AsPC-1, SW 1990, HPAF-II and HPAF-II/hOX1R cells (seeded at 5×10^4 cells/well) were grown in 24-well plates for 24 hr under the culture conditions described above. The culture medium was then replaced every 24 hr with fresh medium with or without orexin-A (GL Biochemicals) at a concentration of 1 μM in the presence or absence of the SHP-2 inhibitor, NSC-87877 (50 μM) (Calbiochem, VWR International SAS, France). At the end of the treatment (48 hr), apoptotic cells were determined using the Guava Nexin™ kit (Guava Technologies, Hayward, Calif., USA), which discriminates between apoptotic and non-apoptotic cells (Rouet-Benzineb P, Rouyer-Fessard C, Jarry A, et al. Orexins Acting at Native OX1 Receptor in Colon Cancer and Neuroblastoma Cells or at Recombinant OX1 Receptor Suppress Cell Growth by Inducing Apoptosis. J Biol Chem 2004; 279:45875-86), analyzed with the Guava Personal Cell Analysis (PCA) system (Merck-Millipore, Guyancourt, France), and counted (2,000 events) (Voisin et al, 2008, as above). Results are expressed as the percentage of apoptotic phycoerythrin-labelled Annexin V (Annexin V-PE) positive cells and are the means of 3 independent analyses.

[1] = system: HPAF-II cells expressing recombinant OX1R; assay: Quantification of apoptotic cells by annexin V-PE labeling in recombinant OX1R/HPAF-II cells; type: cell-based, human; conditions: OX1R-expressing HPAF-II cells; NSC-87877 50 μM with 1 μM orexin-A
Experimental: as §1, with “in B. […]” for “in B.”
AsPC-1, SW 1990, HPAF-II and HPAF-II/hOX1R cells (seeded at 5×10^4 cells/well) were grown in 24-well plates for 24 hr under the culture conditions described above. […] Results are expressed as the percentage of apoptotic phycoerythrin-labelled Annexin V (Annexin V-PE) positive cells and are the means of 3 independent analyses.

AsPC-1 cells [2] = assay: Quantification of apoptotic cells by annexin V-PE labeling in AsPC-1 cells; type: cell-based, human; conditions: 48 hr; for effect of SHP-2 inhibitor on orexin-induced apoptosis: AsPC-1 cells, NSC-87877 50 μM with 1 μM orexin-A
Experimental: FIG. 4A-C. Effect of orexin-A on apoptosis in AsPC-1 cells. A, SHP-2 protein tyrosine phosphatase inhibitor, NSC-87877, blocks orexin-induced apoptosis. AsPC-1 cells were challenged with (black bars) or without (white bars) 1 μM orexin-A for 48 hr in the absence or presence of NSC-87877 (50 μM). Apoptosis was measured by determination of annexin V-PE binding, and results are expressed as the percentage of apoptotic cells; B and C: Indirect immunostaining of activated caspase-3 in AsPC-1 cells in the presence or absence of orexin-A. Paraformaldehyde-fixed AsPC-1 cells were challenged with (orexin-A) or without (basal) 1 μM orexin-A for 48 hr. Activated caspase-3 immunostaining is shown in B and scored in C. Results are means±SE of three separate experiments. ***p<0.001; ns, non-significant.
as §2

[3] = system: HEK stably expressing OX1R (HEK-OX1R); assay: Cell growth of HEK-OX1R cells (cell counting); type: cell-based; conditions: 0.1 μM, 48 h
Experimental: The development of antibodies directed against OX1R were produced by a phage display strategy and the antibody selection was performed by using HEK and HEK stably expressing OX1R (HEK-OX1R) cell lines. […] Cells were incubated with 0.1 μM of OxB or antibodies for 48 h in culture medium and then cells were counted in order to estimate the cellular growth. […] We have tested the ability of antibodies to inhibit the cellular growth in cancer cell lines derived from and pancreas cancer (AsPC-1 cells).

AsPC-1 cells [4] = assay: Cell growth of AsPC-1 cells (cell counting); type: cell-based, human; conditions: 0.1 μM, 48 h; AsPC-1 cells (FIG. 9)
Experimental: FIG. 9. Effect of Orexin-B anti-OX1R antibodies on cell growth of AsPC-1 cells. Cells were incubated with 0.1 μM of OxB or antibodies for 48 h in culture medium and then cells were counted in order to estimate the cellular growth.
The aims of this study were: 1/ to investigate the presence of OX1R in human PAC cell lines and to analyze orexin-A effects in relation to apoptosis; 2/ to develop an in vivo heterotopic xenograft model from the cell lines expressing OX1R, for the study of tumor growth in response to Orexin-A. The expression of OX1R was studied at mRNA (RT-PCR), proteins (immunocytochemistry) and functional levels in 3 PAC cell lines (AsPC-1, HPAF-II and SW1990). The development of an animal model (heterotopic xenograft) from the cell line expressing OX1R, has allowed studying the effect of Orexin-A in tumor growth. Resected tumors were analyzed by immunohistochemistry. Only AsPC-1 cell line expresses OX1R.
The development of antibodies directed against OX1R were produced by a phage display strategy and the antibody selection was performed by using HEK and HEK stably expressing OX1R (HEK-OX1R) cell lines. […] Cells were incubated with 0.1 μM of OxB or antibodies for 48 h in culture medium and then cells were counted in order to estimate the cellular growth. […]

| Molecule | effect of SHP-2 inhibitor on apoptosis (parental HPAF-II cells) | effect of SHP-2 inhibitor on orexin-A-induced apoptosis [1] | effect of SHP-2 inhibitor on orexin-induced apoptosis (AsPC-1 cells [2]) | effect of SHP-2 inhibitor on orexin-induced apoptosis (AsPC-1 cells [2]; listed as NSC 87877) | percentage of apoptotic cells (annexin V-PE) (AsPC-1 cells [2]; NSC 87877 (50 μM) in the absence of orexin-A) | percentage of apoptotic cells (annexin V-PE) (AsPC-1 cells [2]; NSC 87877 (50 μM) in the presence of 1 μM orexin-A) | reduction of HEK-OX1R cell number [3] [%] | inhibition of cell growth (AsPC-1 cells [4]) |
| --- | --- | --- | --- | --- | --- | --- | --- | --- |
| O=S(=O)(O)c1ccc2cc(N=Nc3cc(S(=O)(=O)O)c4cccnc4c3O)ccc2c1 [NSC-87877] | no effect | totally abolished | reverse orexin-induced apoptosis | totally abolished | 4.6%±0.9 | 4.8%±0.5 | – | – |
| orexin-B: 28 amino acid hypothalamic neuropeptide, SEQ ID NO:3 | – | – | – | – | – | – | 40±3 | able to inhibit the cell growth |
